The subject of one data set is rats. The data set can be described thus: Preclinical model of neuropathic pain (Chung spinal nerve L5/L6 ligation, von Frey test). To be noted: buspirone 3 mg/kg ip; acetaminophen 200 mg/kg ip; or both coadministered. The class given is in vivo, rat. The text has this: J Neurosci Methods. […] For acetaminophen (Sigma, A7085) the vehicle was 40% polyethylene glycol 400 (PEG-400), 10% EtOH, 15% Tween 80, and 35% deionized H2O (PETW). Acetaminophen was disolved sequentially in two parts: 1) first into a solution of 80% PEG 400+20% EtOH, and 2) then slowly added to it was an equal volume of 30% Tween 80+70% deionized H2O (sonicated as needed). Each animal received two injections at time zero.

For data set [1] the following is noted: in vivo; cited from earlier work.
For data set [2] the following is noted: acute high doses; cited from earlier work.
Data set [3] concerns albino rats. The data set can be described thus: Preclinical model of chronic pain (rat formalin test, phase II flinches). The note with it: single ip delivery: morphine 4 mg/kg, buspirone 3 mg/kg, acetaminophen 300 mg/kg. Format: in vivo. The procedure: To assess responses to a chronic stimulus (subcutaneous formalin injection), animals are first placed in clear observation boxes for a 30 min acclimation period prior to testing. Animals are subsequently removed and the dorsum of one hindpaw is injected s.c. with 50 microliters of 2.5% formalin. […] The total number of flinches is computer scored during the chronic phase (10-90 min after formalin) using a commercially available device (George Ozaki, Automated Nocicpetion Analyzer, Department of Anesthesiology, University of California, San Diego; La Jolla, Calif.) which automates the manual procedure described previously by Wheeler-Aceto et al. (Pain 40:229-238, 1990). All drugs are delivered at 30 min prior to formalin injection by the intraperitoneal (i.p.) route in a volume of 2 ml/kg. […] For acetaminophen (Sigma, A7085) the vehicle was 40% polyethylene glycol 400 (PEG-400), 10% EtOH, 15% Tween 80, and 35% deionized H2O (PETW). Acetaminophen was disolved sequentially in two parts: 1) first into a solution of 80% PEG 400+20% EtOH, and 2) then slowly added to it was an equal volume of 30% Tween 80+70% deionized H2O (sonicated as needed). Each animal received two injections at time zero. Specifically, animals were tested in one of the following 5 treatment conditions (abbreviations used in figures are shown under ‘Key” below): […]

For data set [4] the following is noted: in vivo; cited from earlier work. This is another data set of the same source.
The test system of the next data set is mouse. The data set can be described thus: Mouse hot plate test (Eddy et al.). Format: in vivo. To be noted: buspirone to acetaminophen weight ratios of 1:3, 1:10, and 1:30.
Data set [5] has as its system albino rats. The data set can be described thus: Rat hindpaw withdrawal (thermal escape) test for analgesia (acute pain). To be noted: for Hindpaw thermal escape latency from 30 min to 120 min: ipsapirone 20 mg/kg ip, acetaminophen 300 mg/kg ip, or both coadministered, vs vehicle; for Thermal escape latencies vs vehicle, single administration: tandospirone 5 mg/kg ip alone, acetaminophen 300 mg/kg ip alone. Format: in vivo. The source says: To assess the thermally evoked paw-withdrawal response, a commercially available device was used. Specifics of device construction and operation have been published previously (Dirig D M, Salami A, Rathbun M L, Ozaki G T, Yaksh T L. Characterization of variables defining hindpaw withdrawal latency evoked by radiant thermal stimuli. J Neurosci Methods. Oct. 3, 1997; 76(2):183-91). This device is comprised of a glass surface on which the rats were placed individually in Plexiglas cubicles (9×22×25 cm). The surface is maintained at 30° C. by a feedback-controlled, under-glass, forced-air heating system. The thermal nociceptive stimulus originates from a projection bulb below the glass that can be manipulated in a two-dimensional axis on ball bearing slides. This apparatus allows the stimulus to be delivered separately to each hind paw with the aid of an angled mirror mounted on the stimulus source. A timer is actuated with the light source, and escape latency is defined as the time between stimulus onset and the display of a brisk paw withdrawal (detected by photodiode motion sensors that stops the timer and terminates the stimulus; cut-off time for a non-response is 20 sec which triggers automatic termination of the stimulus). In the present study, animals are placed in test boxes for 30 min acclimation and then baseline escape latency is assessed separately for each hindpaw (left and right) at −15 min. All drugs are delivered at 0 min by the intraperitoneal (i.p.) route in a volume of 3 ml/kg. […] For acetaminophen (Sigma, A7085) the vehicle was 40% polyethylene glycol 400 (PEG-400), 10% EtOH, 15% Tween 80, and 35% deionized H2O (PETW). Acetaminophen was disolved sequentially in two parts: 1) first into a solution of 80% PEG 400+20% EtOH, and 2) then slowly added to it was an equal volume of 30% Tween 80+70% deionized H2O (sonicated as needed). Other azapirone vehicles were Gepirone (saline), ipsapirone (deionized H2O), and tandospirone (DMA+PETW), DMA=5% dimethylacetamide. Each animal received two injections at time zero. Specifically, animals were tested in one of the following 10 treatment conditions (abbreviations used in figures are shown under ‘Key” below):
Following drug administration, thermal escape latencies are measured at regular intervals (e.g., 15, 30, 60, 90 and 120 min, mean of both paws is used for statistical analysis).

Data set [6] can be described thus: Rat plasma concentrations of buspirone and APAP over time. The class given is in vivo. The text has this:
It also has agonistic action at presynaptic D2 dopaminergic receptors. Acetaminophen is believed to act by elevating the pain threshold in patients.

Consider “8-[4-[4-(2-pyrimidinyl)1-piperazinyl]butyl-8-azaspiro(4,5)-decane-7,9-dione [buspirone]”, for which the “von Frey thresholds, injured side (neuropathic pain responses)” value in the data set on rats was “not significantly different from vehicle”. For the same compound, the “Effect on xylazine-induced antinociception” value in data set [1] is given as “attenuate xylazine-induced antinociception”. The “Relief of neuropathic pain” value in data set [2] is “did not relieve neuropathic pain”. Also, the “Formalin-induced flinches relative to vehicle” value with albino rats [3] was “significantly suppressed”. For the same compound, in data set [4], the “Type of analgesia produced” value is given as “non-opioid type of analgesia”. Also, the “Potentiation of acetaminophen in hot plate test” value with mouse was “demonstrated potentiation of acetaminophen”.

Consider `CC(=O)Nc1ccc(O)cc1` [acetaminophen], for which, in the data set on rats, the “von Frey thresholds, injured side (neuropathic pain responses)” value is “partial reversal toward normal at 30-120 min”. In addition, in the data set with albino rats [5] (acetaminophen 300 mg/kg ip, compared to vehicle), the “Hindpaw thermal escape response, Area Under the Curve (AUC) from thermal escape latencies (sec) over 120 min post injection” value is reported as “elevated significantly above vehicle”. Besides, in the data set with albino rats [5], the “Hindpaw thermal escape latency from 30 min to 120 min” value is given as “a comparably high level of analgesia was not consistently attached throughout this same time period” and the “Thermal escape latencies vs vehicle, single administration” value is “did not differ from vehicle until 90 min after injection”. Further, the “Plasma concentrations over time, alone vs in combination” value in data set [6] was “do not differ significantly whether given alone or in combination”. In addition, the “Formalin-induced flinches relative to vehicle” value in the data set on albino rats [3] is “significantly suppressed”.

For `O=C1c2ccccc2S(=O)(=O)N1CCCCN1CCN(c2ncccn2)CC1` [ipsapirone], the “Hindpaw thermal escape latency from 30 min to 120 min” value in the data set with albino rats [5] is reported as “a comparably high level of analgesia was not consistently attached throughout this same time period”.

`CN1CC[C@]23c4c5ccc(O)c4O[C@H]2[C@@H](O)C=C[C@H]3[C@H]1C5` [morphine]: in the data set with albino rats [3], the “Formalin-induced flinches relative to vehicle” value was “significantly suppressed”.

Turning to `O=C1[C@@H]2[C@H]3CC[C@H](C3)[C@@H]2C(=O)N1CCCCN1CCN(c2ncccn2)CC1` [tandospirone], the “Thermal escape latencies vs vehicle, single administration” value with albino rats [5] is on record as “did not differ from vehicle until 90 min after injection”.

Values taken from patent publication US6566361B2, “Azapirone pain treatment” (priority 1999, dated 2003).
